{"source": "patent US9649295B2", "about": "“Chemical inhibitors of soluble adenylyl cyclase (sAC)” (Cornell Research Foundation, Inc., priority 2004, dated 2017)", "key": {"[1]": {"system": "INS-1E cells", "assay": "transferrin recycling in INS-1E cells", "assay_type": "cell-based", "conditions": "30 minutes, KH7 30 μM", "description": "(§1) Briefly, cells (passage 140-150) were plated at 2.5×10^5 cells/well in a 24 well plate and permitted to recover for two days. Cells were glucose starved by incubation for 1 hour in the presence of 2.5 mM glucose KRB medium supplemented with 2 mM sodium bicarbonate, 10 mM Hepes, and 0.1% BSA. After washing, cells were incubated in KRB with either 2.5 mM or 16 mM glucose in the presence of either vehicle control (DMSO or MeOH) or indicated drug. After the indicated time, removed media was cleared of cell debris and secreted insulin was measured by Insulin ELISA kit (Linco Research, St. Charles, Mo., or ALPCO, Windham, N.H.). If cAMP was to be concomitantly measured, cells were pre-treated with IBMX for the final 10 minutes of the glucose starvation and IBMX was included in all subsequent incubations. For the washout experiment, subsequent to initial insulin determination, cells treated with KH7 were placed in fresh KRB (2.5 mM glucose) for an additional hour and insulin release was measured as above in the absence of any added drug. For transferrin recycling, loading of cells with I^125 transferrin was performed during hour incubation in 2.5 mM glucose KRB."}, "[2]": {"molecular_target": "T1, Type II tmAC (tmAC in extracts) (Homo sapiens, UniProt Q08462)", "T1 construct": "expressed in transfected cells", "T1 sequence (Q08462 whole entry)": "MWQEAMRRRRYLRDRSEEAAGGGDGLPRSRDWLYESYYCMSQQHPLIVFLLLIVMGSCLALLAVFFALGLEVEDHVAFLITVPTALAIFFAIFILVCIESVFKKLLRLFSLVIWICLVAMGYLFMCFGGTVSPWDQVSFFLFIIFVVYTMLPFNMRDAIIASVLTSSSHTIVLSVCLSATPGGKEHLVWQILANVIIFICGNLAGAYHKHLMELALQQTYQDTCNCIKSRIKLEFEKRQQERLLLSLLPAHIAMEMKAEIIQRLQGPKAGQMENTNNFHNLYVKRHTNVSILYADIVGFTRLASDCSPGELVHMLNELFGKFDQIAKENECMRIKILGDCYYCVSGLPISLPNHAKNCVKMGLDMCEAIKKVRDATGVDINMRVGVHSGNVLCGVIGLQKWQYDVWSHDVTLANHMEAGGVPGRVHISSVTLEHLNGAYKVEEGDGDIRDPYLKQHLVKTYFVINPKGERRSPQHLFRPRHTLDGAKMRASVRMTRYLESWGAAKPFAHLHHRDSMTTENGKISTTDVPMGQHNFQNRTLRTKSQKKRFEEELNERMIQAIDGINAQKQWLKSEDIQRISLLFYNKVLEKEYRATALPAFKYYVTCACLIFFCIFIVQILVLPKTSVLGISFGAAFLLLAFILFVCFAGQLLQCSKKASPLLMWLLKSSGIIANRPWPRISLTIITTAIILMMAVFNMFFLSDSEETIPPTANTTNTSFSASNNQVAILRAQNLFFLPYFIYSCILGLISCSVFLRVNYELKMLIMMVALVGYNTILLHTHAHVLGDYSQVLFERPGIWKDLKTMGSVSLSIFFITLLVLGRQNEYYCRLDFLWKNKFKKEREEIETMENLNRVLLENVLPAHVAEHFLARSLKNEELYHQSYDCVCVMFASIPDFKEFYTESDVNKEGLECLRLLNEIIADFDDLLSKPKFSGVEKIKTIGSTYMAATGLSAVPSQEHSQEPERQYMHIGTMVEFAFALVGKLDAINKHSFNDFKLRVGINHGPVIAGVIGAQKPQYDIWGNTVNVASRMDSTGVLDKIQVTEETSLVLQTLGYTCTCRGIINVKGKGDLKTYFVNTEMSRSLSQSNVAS", "assay": "in vitro cyclase activity in extracts of cells overexpressing Type II tmAC", "assay_type": "biochemical", "conditions": "cell printing μM"}, "[3]": {"system": "primary mouse islets", "assay": "insulin release from isolated mouse islets", "assay_type": "cell-based", "conditions": "16.7 mM glucose, 30 minutes, 30 μM KH7", "description": "After several washes with Hank's Balanced Salt Solution, islets were hand-picked and 15-20 islets were distributed into each well of a 12 well plate to adhere overnight in RPMI-1640 media supplemented with 10 mM HEPES, 5.6 mM glucose, 10% FBS, 2 mM L-glutamine, 1 mM sodium pyruvate, and antibiotics.\nInsulin release from isolated islets was performed in 12 well plates. Islets were preincubated in KRB (2.8 mM glucose) for 1 hour followed by incubation for 30 minutes in 2.8 mM glucose KRB in the presence of drug. The same wells were then incubated for an additional 30 minutes in 16.7 mM glucose KRB in the presence of the same drugs. Media was removed, cleared of cells, and insulin was measured."}, "[4]": {"system": "PfAC", "assay": "adenylyl cyclase activity in whole cell extract of isolated parasites", "assay_type": "biochemical, Plasmodium falciparum", "conditions": "MnCl2 and ATP"}, "[5]": {"molecular_target": "catalytic portion of the sAC-like adenylyl cyclase from Candida albicans (fragment JR3) (Candida albicans, UniProt A0A1D8PR83)", "sequence (A0A1D8PR83 entry or part of it)": "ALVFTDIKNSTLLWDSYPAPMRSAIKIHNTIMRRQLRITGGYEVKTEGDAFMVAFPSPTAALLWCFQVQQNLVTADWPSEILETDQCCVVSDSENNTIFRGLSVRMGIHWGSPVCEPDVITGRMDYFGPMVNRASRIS", "assay": "biochemical", "text": "(§2) . FIG. 17A illustrates the bicarbonate dependence of the JR3 fragment; […];"}, "[6]": {"system": "INS-1E cells", "assay": "insulin release in INS-1E cells", "assay_type": "cell-based", "conditions": "for effect on PMA induced insulin release: PMA 300 nM, 2.5 mM glucose, KH7 30 μM", "description": "as §1"}, "[7]": {"system": "cAMP in INS-1E cells", "assay": "intracellular cAMP in INS-1E cells", "assay_type": "cell-based", "description": "as §1"}, "[8]": {"assay": "toxicity observation and post-mortem analysis in mice", "assay_type": "in vivo, mouse", "conditions": "single injection"}, "[9]": {"system": "sAC overexpressing INS-1E cells", "assay": "insulin secretion in sAC overexpressing INS-1E cells (SF2)", "assay_type": "cell-based", "conditions": "30 μM KH7, 15 minutes", "text": "FIGS. 14A-C illustrate that sAC-generated cAMP, distinct from tmAC-generated cAMP, is sufficient to elicit insulin secretion. […] Shown is a representative assay repeated at least five times; values indicate duplicate determinations with standard deviations. […] Shown is a representative assay repeated at least five times; values indicate duplicate determinations with standard deviations. Insert is a Western blot indicating the levels of sAC protein in INS-1E, SF2, and SF5 cells. […] Values represent mean±SEM (n=3). ANOVA analysis was performed with asterisks indicating statistically significant differences. ***=p<0.001. […]\nBriefly, cells (passage 140-150) were plated at 2.5×10^5 cells/well in a 24 well plate and permitted to recover for two days. […] After the indicated time, removed media was cleared of cell debris and secreted insulin was measured by Insulin ELISA kit (Linco Research, St. Charles, Mo., or ALPCO, Windham, N.H.). If cAMP was to be concomitantly measured, cells were pre-treated with IBMX for the final 10 minutes of the glucose starvation and IBMX was included in all subsequent incubations. For the washout experiment, subsequent to initial insulin determination, cells treated with KH7 were placed in fresh KRB (2.5 mM glucose) for an additional hour and insulin release was measured as above in the absence of any added drug. […]"}, "[10]": {"system": "Candida albicans", "assay": "CO2 induced differentiation of Candida albicans into the filamentous stage", "assay_type": "cell-based", "conditions": "similar dose dependency as on JR3", "text": "as §2"}, "[11]": {"system": "tmACs", "assay": "cAMP forming activity inside cells stimulated with forskolin", "assay_type": "cell-based", "conditions": "read-out: in vivo IC50 tmAC (FSK)"}, "[12]": {"system": "tmACs", "assay": "adenylyl cyclase activity in forskolin stimulated INS-1E cell lysate", "conditions": "forskolin (10 μM) stimulated INS-1E", "quoted_text": "In vitro adenylyl cyclase assays were performed on purified recombinant human sACt protein as previously described in Litvin et al., “Kinetic Properties of “Soluble” Adenylyl Cyclase."}, "[13]": {"system": "CREB phosphorylation in isolated nuclei", "assay": "CREB phosphorylation in isolated HeLa nuclei (P2), Western analysis", "assay_type": "biochemical", "conditions": "40 mM bicarbonate, 50 μM KH7", "description": "The resuspended pellet and 60% OptiPrep iodixanol were mixed (30% OptiPrep final) and centrifuged at 10,000 g for 20 min. The supernatant was removed and the nuclei-enriched pellet (P2) was resuspended in TM-2 buffer without detergent.\nReactions were stopped by the addition of 20 μl of SDS sample buffer (CREB phosphorylation) or by being placed into a 100° C. heat block for 3 min (adenylyl cyclase).\nFor whole cell and isolated nuclei CREB phosphorylation assays, equal cell or nuclear equivalents were separated under reducing conditions using a 10% SDS-PAGE, transferred to a PVDF membrane, and probed for CREB (rabbit polyclonal antiserum; Chemicon, Temecula, Calif.) and phosphorylated CREB (rabbit polyclonal antiserum; Upstate Biotechnology, Temecula, Calif.). HRP-conjugated secondary antibodies were used, and bands were visualized using ECL. Image analysis software (model Fluorchem 8800; Alpha Innotech, San Leandro, Calif.) was used to quantitate Western results. Intensities of phospho-CREB bands were normalized to total CREB."}, "[14]": {"system": "Rap1 activation", "assay": "NGF induced Rap1 activation in PC12 cells", "assay_type": "cell-based", "conditions": "15 minutes, KH7 50 μM", "description": "FIG. 18 illustrates that NGF induced Rap1 activation is blocked by KH7 and rescued by membrane permeable cAMP. PC12 cells were stimulated with or without nerve growth factor (NGF) for 15 minutes in the presence or absence of KH7 (50 μM) and 1 mM 8Br-cAMP."}, "[15]": {"system": "Plasmodium falciparum", "assay": "Plasmodium falciparum viability, luciferase assay", "assay_type": "cell-based", "conditions": "24 hours", "description": ". Plasmodium cultures were incubated in the indicated concentrations of KH7 or KH7.15 for 24 hours and viability assessed by luciferase assay (FIG. 16A). […].\nTherefore, the effect of sAC inhibitors on P. falciparum viability was tested. […]."}, "[16]": {"conditions": "16 mM glucose, 30 μM KH7, 30 μM KH7.15, 50 μM 2-hydroxyestradiol, 50 μM 2′5′ddAdo"}}, "note": "Entries after “also recorded” stand apart in the source; their conditions may differ."}
{"molecule": "CC(Sc1nc2ccccc2[nH]1)C(=O)N/N=C/c1cc(Br)ccc1O", "note": "(centres unmarked) [KH7]", "values": [{"measurement": "effect on transferrin recycling", "setting": "[1]", "value": "unaffected"}, {"measurement": "effect on transferrin recycling", "setting": "[1]; listed as K17", "value": "does not affect"}, {"measurement": "IC50", "setting": "[2]", "value": "> 100", "unit": "µM"}, {"measurement": "effect on insulin release induced by high glucose in islets", "setting": "[3]", "value": "inhibited insulin release induced by high glucose"}, {"measurement": "dose response for inhibiting PfAC activity versus killing parasites", "setting": "[4]", "value": "equal dose responses at killing parasites and at inhibiting PfAC activity"}, {"measurement": "IC50", "setting": "[5]", "value": "~23", "unit": "µM"}, {"measurement": "rescue of KH7 inhibition of GSIS by cAMP analog", "setting": "[6]; 50 μM KH7, 1 mM 8-Br-SpcAMP", "value": "rescued by addition of a membrane-permeable cAMP analog"}, {"measurement": "effect on glucose-stimulated insulin secretion (GSIS)", "setting": "[6]; [16]", "value": "blocked all insulin release induced by high glucose"}, {"measurement": "cellular toxicity", "setting": "[6]; INS-1E cells", "value": "not due to cellular toxicity"}, {"measurement": "IC50", "setting": "[6]; INS-1E, 0.5 h, 16 mM glucose, 30 minutes, read-out: IC50 for inhibition of glucose-stimulated insulin secretion (GSIS)", "value": "~5", "unit": "µM"}, {"measurement": "effect on PMA induced insulin release", "setting": "[6]; 30 minutes", "value": "unaffected"}, {"measurement": "effect on PMA induced insulin release", "setting": "[6]; 30 minutes, listed as K17", "value": "does not affect"}, {"measurement": "insulin release over time after addition of high glucose", "setting": "[6]; in the presence of KH7", "value": "no significant insulin release was observed up to 45 minutes"}, {"measurement": "GSIS after drug washout", "setting": "[6]; sixty minutes following removal of drug", "value": "normal GSIS was restored"}, {"measurement": "IC50 for blocking glucose-induced cAMP, compared with sAC inhibition", "setting": "[7]", "value": "matched its dose response of sAC inhibition"}, {"measurement": "effect on cAMP induced by high glucose", "setting": "[7]; [16]", "value": "blocked the cAMP induced by the presence of high glucose"}, {"measurement": "behavior or stressful responses to injection", "setting": "[8]", "value": "did not elicit any behavior or stressful responses inconsistent with a simple saline injection"}, {"measurement": "toxicity to mice", "setting": "[8]", "value": "did not appear to be toxic"}, {"measurement": "anatomical, histological, and blood post-mortem analysis", "setting": "[8]; within 48 hours after drug treatment", "value": "no significant toxicology or histological pathology"}, {"measurement": "effect on sAC overexpression-induced increase in insulin release", "setting": "[9]", "value": "inhibited"}, {"measurement": "effect on CO2 induced differentiation into the filamentous, infectious stage", "setting": "[10]", "value": "dose dependently inhibited"}, {"measurement": "IC50", "setting": "[11]", "value": "> 500", "unit": "µM"}, {"measurement": "effect on tmACs", "setting": "[12]", "value": "inert towards tmACs"}, {"measurement": "effect on bicarbonate-induced CREB phosphorylation", "setting": "[13]", "value": "effective in preventing bicarbonate-induced CREB phosphorylation"}, {"measurement": "effect on NGF induced Rap1 activation", "setting": "[14]", "value": "block NGF induced Rap1 activation; also recorded: blocked"}, {"measurement": "effect on infectious growth in red blood cells", "setting": "[15]", "value": "rapidly (in a single generation) and potently affected"}]}
